Source: patent US6914045B2, “Glycopeptide antibiotics” (Wyeth Holdings Corporation, priority 2001, dated 2005)
Values after ≈ are worked out from the molar mass of the structure shown.

Tests used:
Test in all cases: in vitro antibacterial evaluation, MIC by broth dilution
Format in all cases: cell-based
Enterococcus sp. = conditions: broth dilution, 18 hours at 35° C.
In short: (§1)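 Following National Committee for Clinical Laboratory Standards recommendations (M7-A2), susceptibility was measured by dilution in Muller-Hinton II […]. Bacteria were seeded at 5×10^5 CFU/mL against compound concentrations from 64 down to 0.06 μg/mL.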

Staphylococcus sp. = conditions: broth dilution, 18 hours at 35° C.
In short: as §1

Streptococcus sp. = conditions: broth dilution, 18 hours at 35° C.
In short: as §1

Escherichia coli = conditions: 18 hours at 35° C.

## CC(c1ccccc1)C1NC(=O)CNC(=O)C(CO)NC(=O)C(CC2CNC(=N)N2C2OC(CO)C(O)C(O)C2O)NC(=O)C(CC2CNC(=N)N2)NC(=O)C(Cc2ccc(OC3OC(CO)C(OC4OC(COCc5ccc(OCc6ccccc6)cc5)C(O)C(O)C4O)C(O)C3O)cc2)NC1=O (stereo not shown) [Example 246]
Enterococcus sp.
  MIC Enterococcus avium (GC 4558): 8 µg/mL (≈ 5.48 µM)
  MIC Enterococcus faecalis (ATCC 29212): 16 µg/mL (≈ 11 µM)
  MIC Enterococcus faecalis (GC 2242): 16 µg/mL (≈ 11 µM)
  MIC Enterococcus faecalis (GC 2691): 32 µg/mL (≈ 21.9 µM)
  MIC Enterococcus faecalis (GC 3059): 32 µg/mL (≈ 21.9 µM)
  MIC Enterococcus faecalis (GC 4552): 16 µg/mL (≈ 11 µM)
  MIC Enterococcus faecalis (GC 4553): 8 µg/mL (≈ 5.48 µM)
  MIC Enterococcus faecalis (GC 4554): 32 µg/mL (≈ 21.9 µM)
  MIC Enterococcus faecalis (GC 6189): 16 µg/mL (≈ 11 µM)
  MIC Enterococcus faecium (GC 2243): 16 µg/mL (≈ 11 µM)
  MIC Enterococcus faecium (GC 4556): 16 µg/mL (≈ 11 µM)
  MIC Enterococcus faecium (GC 4557): 4 µg/mL (≈ 2.74 µM)
Enterococcus sp.; strain ATCC 29212
  MIC Enterococcus faecalis (ATCC 29212): 16 µg/mL (≈ 11 µM)
Enterococcus sp.; strain GC 2243
  MIC Enterococcus faecium (GC 2243): 16 µg/mL (≈ 11 µM)
Enterococcus sp.; strain GC 4552
  MIC Enterococcus faecalis (GC 4552): 16 µg/mL (≈ 11 µM)
Enterococcus sp.; strain GC 4553
  MIC Enterococcus faecalis (GC 4553): 8 µg/mL (≈ 5.48 µM)
Enterococcus sp.; strain GC 4554
  MIC Enterococcus faecalis (GC 4554): 32 µg/mL (≈ 21.9 µM)
Enterococcus sp.; strain GC 4556
  MIC Enterococcus faecium (GC 4556): 16 µg/mL (≈ 11 µM)
Enterococcus sp.; strain GC 4557
  MIC Enterococcus faecium (GC 4557): 4 µg/mL (≈ 2.74 µM)
Enterococcus sp.; strain GC 4558
  MIC Enterococcus avium (GC 4558): 8 µg/mL (≈ 5.48 µM)
Enterococcus sp.; strain GC 6189
  MIC Enterococcus faecalis (GC 6189): 16 µg/mL (≈ 11 µM)
Enterococcus sp.; inoculum 5×10^5 CFU/mL, strain GC 2242
  MIC Enterococcus faecalis (GC 2242): 16 µg/mL (≈ 11 µM)
Enterococcus sp.; inoculum 5×10^5 CFU/mL, strain GC 2691
  MIC Enterococcus faecalis (GC 2691): 32 µg/mL (≈ 21.9 µM)
Enterococcus sp.; inoculum 5×10^5 CFU/mL, strain GC 3059
  MIC Enterococcus faecalis (GC 3059): 32 µg/mL (≈ 21.9 µM)
Staphylococcus sp.
  MIC Coagulase Negative Staphylococcus (GC 4547): 4 µg/mL (≈ 2.74 µM)
  MIC Coagulase Negative Staphylococcus (GC 4548): 4 µg/mL (≈ 2.74 µM)
  MIC Coagulase Negative Staphylococcus (GC 4549): 4 µg/mL (≈ 2.74 µM)
  MIC Coagulase Negative Staphylococcus (GC 4551): 8 µg/mL (≈ 5.48 µM)
  MIC Coagulase Negative Staphylococcus (GC 6257): 2 µg/mL (≈ 1.37 µM)
  MIC Staphylococcus aureus (ATCC 29213): 4 µg/mL (≈ 2.74 µM)
  MIC Staphylococcus aureus (GC 1131): 8 µg/mL (≈ 5.48 µM)
  MIC Staphylococcus aureus (GC 3051): 4 µg/mL (≈ 2.74 µM)
  MIC Staphylococcus aureus (GC 3053): 4 µg/mL (≈ 2.74 µM)
  MIC Staphylococcus aureus (GC 4541): 4 µg/mL (≈ 2.74 µM)
  MIC Staphylococcus aureus (GC 4542): 4 µg/mL (≈ 2.74 µM)
  MIC Staphylococcus aureus (GC 4544): 8 µg/mL (≈ 5.48 µM)
  MIC Staphylococcus aureus (GC 4545): 4 µg/mL (≈ 2.74 µM)
  MIC Staphylococcus aureus-SMITH (GC 4543): 4 µg/mL (≈ 2.74 µM)
  MIC Staphylococcus haemolyticus (GC 4546): 4 µg/mL (≈ 2.74 µM)
Staphylococcus sp.; strain ATCC 29213
  MIC Staphylococcus aureus (ATCC 29213): 4 µg/mL (≈ 2.74 µM)
Staphylococcus sp.; strain GC 1131
  MIC Staphylococcus aureus (GC 1131): 8 µg/mL (≈ 5.48 µM)
Staphylococcus sp.; strain GC 3051
  MIC Staphylococcus aureus (GC 3051): 4 µg/mL (≈ 2.74 µM)
Staphylococcus sp.; strain GC 3053
  MIC Staphylococcus aureus (GC 3053): 4 µg/mL (≈ 2.74 µM)
Staphylococcus sp.; strain GC 4541
  MIC Staphylococcus aureus (GC 4541): 4 µg/mL (≈ 2.74 µM)
Staphylococcus sp.; strain GC 4542
  MIC Staphylococcus aureus (GC 4542): 4 µg/mL (≈ 2.74 µM)
Staphylococcus sp.; strain GC 4543
  MIC Staphylococcus aureus-SMITH (GC 4543): 4 µg/mL (≈ 2.74 µM)
Staphylococcus sp.; strain GC 4544
  MIC Staphylococcus aureus (GC 4544): 8 µg/mL (≈ 5.48 µM)
Staphylococcus sp.; strain GC 4545
  MIC Staphylococcus aureus (GC 4545): 4 µg/mL (≈ 2.74 µM)
Staphylococcus sp.; strain GC 4546
  MIC Staphylococcus haemolyticus (GC 4546): 4 µg/mL (≈ 2.74 µM)
Staphylococcus sp.; strain GC 4547
  MIC Coagulase Negative Staphylococcus (GC 4547): 4 µg/mL (≈ 2.74 µM)
Staphylococcus sp.; strain GC 4548
  MIC Coagulase Negative Staphylococcus (GC 4548): 4 µg/mL (≈ 2.74 µM)
Staphylococcus sp.; strain GC 4549
  MIC Coagulase Negative Staphylococcus (GC 4549): 4 µg/mL (≈ 2.74 µM)
Staphylococcus sp.; strain GC 4551
  MIC Coagulase Negative Staphylococcus (GC 4551): 8 µg/mL (≈ 5.48 µM)
Staphylococcus sp.; strain GC 6257
  MIC Coagulase Negative Staphylococcus (GC 6257): 2 µg/mL (≈ 1.37 µM)
Streptococcus sp.
  MIC Streptococcus agalactiae (GC 4564): 2 µg/mL (≈ 1.37 µM)
  MIC Streptococcus pneumoniae (ATCC 6301): 2 µg/mL (≈ 1.37 µM)
  MIC Streptococcus pneumoniae (GC 1894): 0.5 µg/mL (≈ 0.343 µM)
  MIC Streptococcus pneumoniae (GC 4565): 2 µg/mL (≈ 1.37 µM)
  MIC Streptococcus pyogenes (GC 4563): 4 µg/mL (≈ 2.74 µM)
Streptococcus sp.; inoculum 5×10^5 CFU/mL, strain ATCC 6301
  MIC Streptococcus pneumoniae (ATCC 6301): 2 µg/mL (≈ 1.37 µM)
Streptococcus sp.; inoculum 5×10^5 CFU/mL, strain GC 1894
  MIC Streptococcus pneumoniae (GC 1894): 0.5 µg/mL (≈ 0.343 µM)
Streptococcus sp.; inoculum 5×10^5 CFU/mL, strain GC 4563
  MIC Streptococcus pyogenes (GC 4563): 4 µg/mL (≈ 2.74 µM)
Streptococcus sp.; inoculum 5×10^5 CFU/mL, strain GC 4564
  MIC Streptococcus agalactiae (GC 4564): 2 µg/mL (≈ 1.37 µM)
Streptococcus sp.; inoculum 5×10^5 CFU/mL, strain GC 4565
  MIC Streptococcus pneumoniae (GC 4565): 2 µg/mL (≈ 1.37 µM)
Escherichia coli
  MIC Escherichia coli (ATCC 25922): 128 µg/mL (≈ 87.7 µM)
  MIC Escherichia coli (GC 4559): 64 µg/mL (≈ 43.8 µM)
  MIC Escherichia coli (GC 4560): 4 µg/mL (≈ 2.74 µM)
